IC50 and Ki data for 25 compounds are collected here from patent US8420670B2 (Abbott Laboratories, priority 2007, dated 2013).

Where a name gives a salt, the structure may show the parent alone.

Broadly, the IC50 is the concentration needed to halve the response being measured.

In one test the target is T1, Human GlyT1c (Homo sapiens, UniProt P48067).
T1 construct: expressed in transfected cells; host or cells: CHO (hGlyT1c_5_CHO clone)
T1 sequence (P48067 1-706): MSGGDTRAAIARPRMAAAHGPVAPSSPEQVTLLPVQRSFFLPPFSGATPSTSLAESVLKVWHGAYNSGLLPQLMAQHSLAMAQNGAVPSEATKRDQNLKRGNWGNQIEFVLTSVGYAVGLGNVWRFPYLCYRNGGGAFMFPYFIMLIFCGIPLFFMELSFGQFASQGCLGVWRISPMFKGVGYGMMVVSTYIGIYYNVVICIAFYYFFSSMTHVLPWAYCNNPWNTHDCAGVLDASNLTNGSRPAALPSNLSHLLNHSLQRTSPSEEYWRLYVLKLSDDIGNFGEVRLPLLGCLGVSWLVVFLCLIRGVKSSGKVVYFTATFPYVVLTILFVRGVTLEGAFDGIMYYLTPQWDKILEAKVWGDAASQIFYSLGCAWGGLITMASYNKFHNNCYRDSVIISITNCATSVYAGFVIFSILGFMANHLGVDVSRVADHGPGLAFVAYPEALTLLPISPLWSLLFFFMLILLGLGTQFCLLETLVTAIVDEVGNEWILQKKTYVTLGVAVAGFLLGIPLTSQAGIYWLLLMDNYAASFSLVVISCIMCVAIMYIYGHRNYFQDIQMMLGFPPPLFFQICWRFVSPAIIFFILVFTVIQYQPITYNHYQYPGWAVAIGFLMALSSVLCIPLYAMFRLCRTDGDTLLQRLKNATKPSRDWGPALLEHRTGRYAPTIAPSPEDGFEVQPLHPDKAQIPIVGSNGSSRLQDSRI
Kind of test: Glycine uptake in recombinant hGlyT1 expressing cells. The test is classed as cell-based. As to conditions: hGlyT1c_5_CHO cells; [3H]-glycine uptake, 60-120 min. Here is the method:
1. Glycine Uptake in Recombinant hGlyT1 Expressing Cells:
Human GlyT1c expressing recombinant hGlyT1c—5_CHO cells were plated at 20,000 cells per well in 96 well Cytostar-T scintillation microplates (Amersham Biosciences) and cultured to sub-confluency for 24 h. For glycine uptake assays the culture medium was aspirated and the cells were washed once with 100 μl HBSS (Gibco BRL, #14025-050) with 5 mM L-Alanine (Merck #1007). 80 μl HBSS buffer were added, followed by 10 μl inhibitor or vehicle (10% DMSO) and 10 μl [^3H]-glycine (TRK71, Amersham Biosciences) to a final concentration of […] for initiation of glycine uptake. The plates were placed in a Wallac Microbeta (PerkinElmer) and continuously counted by solid phase scintillation spectrometry during up to 3 hours. Nonspecific uptake was determined in the presence of 10 μM Org24598. IC50 calculations were made by four-parametric logistic nonlinear regression analysis (GraphPad Prism) using determinations within the range of linear increase of [^3H]-glycine incorporation between 60 and 120 min.

The next test has as its target T2, human GlyT1c transporter (Homo sapiens, UniProt P48067).
T2 construct: expressed in transfected cells; host or cells: recombinant hGlyT1-expressing cells
T2 sequence (P48067 1-706): T1 sequence (P48067 1-706)
As to the kind of experiment: [3H]-(R)-NPTS radioligand binding assay using recombinant hGlyT1 expressing cell membranes. To be noted: 0.5 nM [3H]-(R)-NPTS, apparent Ki via Cheng-Prusoff, read-out: [3H]-(R)-NPTS bindung Ki. Here is the method: 2. [^3H]-(R)-NPTS Radioligand Binding Assays using Recombinant hGlyT1 Expressing Cell Membranes:
Radioligand binding to human GlyT1c transporter-expressing membranes was measured in duplicate in a total volume of 200 μl in 96-well plates. To 100 μl of membrane suspension (yielding a final membrane protein concentration of 50 μg/ml) in assay buffer (120 mM NaCl, 2 mM KCl, 10 mM Hepes, 1 mM MgCl2, 1 mM CaCl2, pH 7.5) […] of [^3H]-(R)NPTS (0.5 nM final) were added in assay buffer. For competition experiments 10 μl of buffer or unlabeled compound solution obtained from dilution series of test compounds in DMSO followed. An intermediate 1:10 dilution in assay buffer yielded a final DMSO concentration of 1%. Non-specific binding was determined in the presence of 10 μM Org24598 (or its racemate Org24461) for [^3H]-(R)-NPTS. After incubation at room temperature for 1 h, the incubation mixture was harvested (Tomtec Mach III U Harvester) through 96-well GF/B filter plates (PerkinElmer), presoaked for 1 h with 40 μl per well of 0.1% polyethylene-imine (PEI). After washing twice with ice-cold 50 mM Tris-HCl pH 7.4 buffer, drying and addition of 35 μl scintillator (BetaplateScint, PerkinElmer) per well followed. The radioactivity was determined by liquid scintillation spectrometry in a MicroBeta (PerkinElmer) plate counter.
Data analysis: For binding of [^3H]-(R)-NPTS to cell membranes, the calculation of Kd and Bmax values from the saturation binding assays and the IC50 values from the displacement binding was performed by iterative non-linear regression analysis adapted from the ‘Ligand’ program (Munson and Rodbard, 1980). Radioligand displacement curves in absence or in presence of increasing concentrations of tested compounds were fitted using a one-site fit and the apparent Ki values were calculated from the IC50 values using the Cheng-Prusoff equation (Cheng and Prusoff 1973).

`COc1cccc2c(NC(CN(C)C)c3ccc(Cl)cc3)cc(C)nc12` (racemic) [Example 68, (rac)-1-(4-Chlorophenyl)-N*1*-(8-methoxy-2-methylquinolin-4-yl)-N*2*,N*2*-dimethylethane-1,2-diamine dihydrochloride]: on Human GlyT1c, the IC50 is no more than 0.1 µM. Further, the Ki on human GlyT1c transporter was no more than 0.01 µM.
As for `Cc1cc(NCc2ccc(Cl)c(Cl)c2)c2cccc(S(=O)(=O)N(C)C)c2n1` [Example 1, 4-(3,4-Dichlorobenzylamino)-2-methylquinoline-8-sulfonic dimethylamide], the IC50 on Human GlyT1c is no more than 10 µM. For the same compound, the Ki at human GlyT1c transporter is no more than 1 µM.
The like results for `Cc1cc(NCc2ccc(Cl)c(Cl)c2)c2cccc(S(N)(=O)=O)c2n1` [Example 2, 4-(3,4-Dichlorobenzylamino)-2-methylquinoline-8-sulfonamide] were, in that order, no more than 1000 µM and no more than 1 µM.
As to `Cc1cc(NCc2ccc(Cl)c(Cl)c2)c2cccc(S(=O)(=O)NC(C)C)c2n1` [Example 3, 4-(3,4-Dichlorobenzylamino)-2-methyl-quinoline-8-sulfonic isopropylamide], the IC50 at Human GlyT1c was no more than 10 µM. Besides, the Ki on human GlyT1c transporter is no more than 1 µM.
Consider `Cc1cc(NCc2ccc(Cl)c(Cl)c2)c2cccc(S(=O)(=O)Nc3ccc(Cl)cc3)c2n1` [Example 4, 4-(3,4-Dichlorobenzylamino)-2-methylquinoline-8-sulfonic (4-chlorophenyl)-amide], for which, at Human GlyT1c, the IC50 was no more than 100 µM. Further, the Ki at human GlyT1c transporter is no more than 1 µM.
For `Cc1cc(NCc2ccc(Cl)c(Cl)c2)c2cccc(N)c2n1` [Example 5, N*4*-(3,4-Dichlorobenzyl)-2-methylquinoline-4,8-diamine], the IC50 at Human GlyT1c is no more than 0.1 µM. Also, the Ki at human GlyT1c transporter is no more than 0.1 µM.
As for `Cc1cc(NCc2ccc(Cl)c(Cl)c2)c2cccc(N3CCOCC3)c2n1` [Example 6, (3,4-Dichlorobenzyl)-(2-methyl-8-morpholin-4-yl-quinolin-4-yl)-amine hydrobromide], the IC50 at Human GlyT1c is no more than 1 µM. Besides, the Ki on human GlyT1c transporter is no more than 0.1 µM.
Take `Cc1cc(NCc2ccc(Cl)c(Cl)c2)c2cccc(N3CCCC3)c2n1` [Example 7, (3,4-Dichlorobenzyl)-(2-methyl-8-pyrrolidin-1-yl-quinolin-4-yl)-amine hydrochloride]: at Human GlyT1c, the IC50 is no more than 1 µM. Further, the Ki at human GlyT1c transporter was no more than 1 µM.
Regarding `Cc1cc(NCc2ccc(Cl)c(Cl)c2)c2cccc(NS(=O)(=O)c3ccccc3)c2n1` [Example 8, N-[4-(3,4-Dichlorobenzylamino)-2-methylquinolin-8-yl]-phenylsulfonamide], the IC50 at Human GlyT1c was no more than 10 µM. Moreover, at human GlyT1c transporter, the Ki was no more than 1 µM.
The corresponding values for `CCNc1cccc2c(NCc3ccc(Cl)c(Cl)c3)cc(C)nc12` [Example 9, N*4*-(3,4-Dichlorobenzyl)-N*8*-ethyl-2-methylquinolin-4,8-diamine] are no more than 1 µM and no more than 0.1 µM.
For the compound `Cc1cc(NCc2ccc(Cl)c(Cl)c2)c2cccc(NC(=O)c3ccccc3)c2n1` [Example 10, N-[4-(3,4-Dichlorobenzylamino)-2-methylquinolin-8-yl]-benzamide], the IC50 at Human GlyT1c was no more than 100 µM. Also, the Ki at human GlyT1c transporter was no more than 1 µM.
The corresponding values for `Cc1cc(NCc2ccc(Cl)c(Cl)c2)c2cccc(N(S(C)(=O)=O)S(C)(=O)=O)c2n1` [Example 11, N-[4-(3,4-Dichlorobenzylamino)-2-methylquinolin-8-yl]-bis-methanesulfonamide] are no more than 100 µM and no more than 10 µM.
Regarding `Cc1cc(NCc2ccc(Cl)c(Cl)c2)c2cccc(NS(C)(=O)=O)c2n1` [Example 12, N-[4-(3,4-Dichlorobenzylamino)-2-methylquinolin-8-yl]-methanesulfonamide], the IC50 at Human GlyT1c was no more than 10 µM. Further, at human GlyT1c transporter, the Ki was no more than 1 µM.
Take `CC(=O)Nc1cccc2c(NCc3ccc(Cl)c(Cl)c3)cc(C)nc12` [Example 13, N-[4-(3,4-Dichlorobenzylamino)-2-methylquinolin-8-yl]-acetamide]: the IC50 at Human GlyT1c was no more than 1 µM. In addition, the Ki on human GlyT1c transporter was no more than 1 µM.
Take `Cc1cc(NCc2ccc(Cl)c(Cl)c2)c2cccc(NC(=O)C(C)C)c2n1` [Example 14, N-[4-(3,4-Dichlorobenzylamino)-2-methylquinolin-8-yl]-isobutyramide]: the concentration for half-maximal inhibition (IC50) at Human GlyT1c is no more than 10 µM. Moreover, the Ki at human GlyT1c transporter was no more than 10 µM.
As for `CNc1cccc2c(NCc3ccc(Cl)c(Cl)c3)cc(C)nc12` [Example 15, N*4*-(3,4-Dichlorobenzyl)-N*8*-methyl-2-methylquinolin-4,8-diamine], the IC50 on Human GlyT1c is no more than 1 µM. Moreover, at human GlyT1c transporter, the Ki is no more than 0.1 µM.
`Cc1cc(NCc2ccc(Cl)c(Cl)c2)c2cccc(N(C)C)c2n1` [Example 16, N*4*-(3,4-Dichlorobenzyl)-N*8*-dimethyl-2-methylquinolin-4,8-diamine hydrochloride]: on Human GlyT1c, the IC50 is no more than 1 µM. For the same compound, on human GlyT1c transporter, the Ki is no more than 0.1 µM.
The corresponding values for `Cc1ccc(S(=O)(=O)N2CCN(c3cccc4c(NCc5ccc(Cl)c(Cl)c5)cc(C)nc34)CC2)cc1` [Example 17, (3,4-Dichlorobenzyl)-{2-methyl-8-[4-(toluene-4-sulfonyl)-piperazin-1-yl]-quinolin-4-yl}-amine] are no more than 10 µM and no more than 1 µM.
`Cc1cc(NCc2ccc(Cl)c(Cl)c2)c2cccc(N3CCNCC3)c2n1` [Example 18, (3,4-Dichlorobenzyl)-(2-methyl-8-piperazin-1-yl-quinolin-4-yl)-amine dihydrochloride]: on Human GlyT1c, the IC50 is no more than 1 µM. Further, the Ki at human GlyT1c transporter is no more than 0.1 µM.
The corresponding values for `Cc1cc(NCc2ccc(Cl)c(Cl)c2)c2cccc(OCCNC(=O)OC(C)(C)C)c2n1` [Example 19, {2-[4-(3,4-Dichlorobenzylamino)-2-methylquinolin-8-yloxy]-ethyl}-carbamate tert-butyl ester] are no more than 0.1 µM and no more than 0.1 µM.
In the case of `Cc1cc(NCc2ccc(Cl)c(Cl)c2)c2cccc(OCCN)c2n1` [Example 20, [8-(2-Aminoethoxy)-2-methylquinolin-4-yl]-(3,4-dichlorobenzyl)-amine dihydrochloride], the IC50 at Human GlyT1c is no more than 1 µM. On human GlyT1c transporter, the Ki was no more than 0.01 µM.
On to `Cc1cc(NCc2ccc(Cl)c(Cl)c2)c2cccc(OCCNS(C)(=O)=O)c2n1` [Example 21], for which the IC50 on Human GlyT1c was no more than 0.1 µM. In addition, the Ki at human GlyT1c transporter was no more than 0.01 µM.
The corresponding values for `Cc1cc(NCc2ccc(Cl)c(Cl)c2)c2cccc(OCCNC(=O)c3ccccc3)c2n1` [Example 22] are no more than 0.1 µM and no more than 0.01 µM.
In the case of `Cc1cc(NCc2ccc(Cl)c(Cl)c2)c2cccc(OCCNS(=O)(=O)c3ccccc3)c2n1` [Example 23, hydrochloride], the IC50 on Human GlyT1c was no more than 1 µM. At human GlyT1c transporter, the Ki is no more than 0.01 µM.
Take `CC(=O)NCCOc1cccc2c(NCc3ccc(Cl)c(Cl)c3)cc(C)nc12` [Example 24, N-{2-[4-(3,4-Dichlorobenzylamino)-2-methylquinolin-8-yloxy]-ethyl}-acetamide]: the IC50 on Human GlyT1c was no more than 1 µM. Further, the Ki on human GlyT1c transporter was no more than 0.1 µM.
